Activity calls are given as the source filed them. No cut-off for these calls is given here.
Columns and labels:
[1] = Effect on 2 Hz electrically driven contractile tension in WKY rat right ventricle at 3 uM relative to control; type: functional, Heart right ventricle
Heart [2] = test: Antiarrhythmic activity against ouabain-induced arrhythmia in guinea pig right atria assessed as reversal of cardiac arrhythmia to normal rhythm at 10 uM; type: functional, tissue-based; conditions: Cavia porcellus
Heart [3] = test: Effect on spontaneously beating heart rate in WKY rat right atria at 10 uM relative to control
Heart [4] = test: Effect on spontaneously beating heart rate in WKY rat right atria at 3 uM relative to control
Right cardiac atrium [5] = test: Effect on spontaneous contractile tension in WKY rat right atria at 30 uM relative to control
Heart [6] = test: Effect on spontaneously beating heart rate in WKY rat right atria at 30 uM relative to control
Left cardiac atrium [7] = test: Effect on 2 Hz electrically driven contractile tension in WKY rat left atria at 10 uM relative to control; type: functional
Right cardiac atrium [8] = test: Effect on spontaneous contractile tension in WKY rat right atria at 10 uM relative to control
Heart [9] = test: Effect on spontaneously beating heart rate in WKY rat right atria at 1 uM relative to control
Heart [10] = test: Effect on spontaneously beating heart rate in WKY rat right atria at 0.3 uM relative to control
[11] = Effect on 2 Hz electrically driven contractile tension in WKY rat right ventricle at 10 uM relative to control; type: functional, Heart right ventricle
Left cardiac atrium [12] = test: Effect on 2 Hz electrically driven contractile tension in WKY rat left atria at 3 uM relative to control; type: functional
Left cardiac atrium [13] = test: Effect on 2 Hz electrically driven contractile tension in WKY rat left atria at 0.3 uM relative to control; type: functional
[14] = Effect on 2 Hz electrically driven contractile tension in WKY rat right ventricle at 1 uM relative to control; type: functional, Heart right ventricle
Right cardiac atrium [15] = test: Effect on spontaneous contractile tension in WKY rat right atria at 1 uM relative to control
Heart [16] = test: Antiarrhythmic activity against ouabain-induced arrhythmia in guinea pig right ventricle assessed as reversal of cardiac arrhythmia to normal rhythm at 3 uM; type: functional, tissue-based; conditions: Cavia porcellus
Left cardiac atrium [17] = test: Effect on 2 Hz electrically driven contractile tension in WKY rat left atria at 1 uM relative to control; type: functional
Heart [18] = test: Antiarrhythmic activity against ouabain-induced arrhythmia in guinea pig right ventricle assessed as reversal of cardiac arrhythmia to normal rhythm at 10 uM; type: functional, tissue-based; conditions: Cavia porcellus
Left cardiac atrium [19] = test: Effect on 2 Hz electrically driven contractile tension in WKY rat left atria at 30 uM relative to control; type: functional
Heart [20] = test: Antiarrhythmic activity against ouabain-induced arrhythmia in guinea pig right ventricle assessed as reversal of cardiac arrhythmia to normal rhythm at 1 uM; type: functional, tissue-based; conditions: Cavia porcellus
Right cardiac atrium [21] = test: Effect on spontaneous contractile tension in WKY rat right atria at 3 uM relative to control
[22] = Effect on 2 Hz electrically driven contractile tension in WKY rat right ventricle at 0.3 uM relative to control; type: functional, Heart right ventricle
[23] = Effect on 2 Hz electrically driven contractile tension in WKY rat right ventricle at 30 uM relative to control; type: functional, Heart right ventricle
Right cardiac atrium [24] = test: Effect on spontaneous contractile tension in WKY rat right atria at 0.3 uM relative to control
Heart [25] = test: Antiarrhythmic activity against ouabain-induced arrhythmia in guinea pig left atria assessed as reversal of cardiac arrhythmia to normal rhythm at 3 uM; type: functional, tissue-based; conditions: Cavia porcellus
Heart [26] = test: Antiarrhythmic activity against ouabain-induced arrhythmia in guinea pig left atria assessed as reversal of cardiac arrhythmia to normal rhythm at 1 uM; type: functional, tissue-based; conditions: Cavia porcellus
Heart [27] = test: Antiarrhythmic activity against ouabain-induced arrhythmia in guinea pig right atria assessed as reversal of cardiac arrhythmia to normal rhythm at 1 uM; type: functional, tissue-based; conditions: Cavia porcellus
Heart [28] = test: Antiarrhythmic activity against ouabain-induced arrhythmia in guinea pig right atria assessed as reversal of cardiac arrhythmia to normal rhythm at 3 uM; type: functional, tissue-based; conditions: Cavia porcellus
Heart [29] = test: Antiarrhythmic activity against ouabain-induced arrhythmia in guinea pig right atria assessed as reversal of cardiac arrhythmia to normal rhythm at 30 uM; type: functional, tissue-based; conditions: Cavia porcellus
Heart [30] = test: Antiarrhythmic activity against ouabain-induced arrhythmia in guinea pig right ventricle assessed as reversal of cardiac arrhythmia to normal rhythm at 30 uM; type: functional, tissue-based; conditions: Cavia porcellus

| SMILES | Activity [1] | Activity (Heart [3]) | Activity (Heart [4]) | Activity (Right cardiac atrium [5]) | Activity (Heart [6]) | Activity (Left cardiac atrium [7]) | Activity (Right cardiac atrium [8]) | Activity (Heart [9]) | Activity (Heart [10]) | Activity [11] | Activity (Left cardiac atrium [12]) | Activity (Left cardiac atrium [13]) | Activity [14] | Activity (Right cardiac atrium [15]) | Activity (Heart [16]) | Activity (Left cardiac atrium [17]) | Activity (Left cardiac atrium [19]) | Activity (Heart [20]) | Activity (Right cardiac atrium [21]) | Activity [23] | also measured |
| --- | --- | --- | --- | --- | --- | --- | --- | --- | --- | --- | --- | --- | --- | --- | --- | --- | --- | --- | --- | --- | --- |
| CCCCO[C@@H](c1ccc(O)c(O)c1)[C@H](CC#Cc1ccc(O)c(O)c1)O[C@@H]1O[C@H](CO)[C@@H](O)[C@H](O)[C@H]1O | 100.4% | 98.4% | 98.4% | 86.4% | 97.4% | 105% | 87.8% | 99% | 100% | 96.8% | 101.1% | 98.8% | 100% | 94.3% | inactive | 95.3% | 103.8% | inactive | 91.6% | 92.2% | Activity (Heart [2]): inactive; Activity (Heart [18]): inactive; Activity [22]: 102%; Activity (Right cardiac atrium [24]): 95.5% |
| OC[C@H]1O[C@@H](O[C@@H](CC#Cc2ccc(O)c(O)c2)[C@H](O)c2ccc(O)c(O)c2)[C@H](O)[C@@H](O)[C@@H]1O [NYASICOSIDE] | 83.6% | 98.5% | 97.4% | 78% | 98.5% | 100.3% | 83.3% | 98.8% | 100% | 78.2% | 104.5% | 108.3% | 84.8% | 94.5% | inactive | 105.8% | 98% | inactive | 92% | 74.6% | Activity (Heart [25]): Active; Activity (Heart [26]): inactive; Activity [22]: 92.3%; Activity (Right cardiac atrium [24]): 96.8% |
| CO[C@H](c1ccc(O)c(O)c1)[C@H](CC#Cc1ccc(O)c(O)c1)O[C@@H]1O[C@H](CO)[C@@H](O)[C@H](O)[C@H]1O | 106.3% | 103% | 103% | 101.7% | 103% | 102.3% | 100.3% | 100% |  | 104.3% | 101.3% |  | 106.7% | 99% |  | 103% | 89.7% | inactive | 99% | 99.3% | Activity (Heart [25]): inactive |
| OC[C@H]1O[C@@H](O[C@@H](CC#Cc2ccc(O)cc2)[C@H](O)c2ccc(O)c(O)c2)[C@H](O)[C@@H](O)[C@@H]1O | 99.2% | 98.5% | 97.5% | 94.8% | 98.5% | 119.3% | 94.5% | 97.5% | 100% | 95.2% | 111.5% |  | 98.4% | 97.5% | inactive | 106.8% | 116.3% | inactive | 98.3% | 94.2% | Activity (Heart [2]): inactive; Activity (Heart [27]): inactive; Activity (Heart [18]): inactive; Activity (Heart [28]): inactive; Activity (Heart [29]): inactive; Activity (Heart [30]): inactive |
| CCCCO[C@H](c1ccc(O)c(O)c1)[C@H](CC#Cc1ccc(O)c(O)c1)O[C@@H]1O[C@H](CO)[C@@H](O)[C@H](O)[C@H]1O | 96.8% | 99.8% | 99% | 83.6% | 97.6% | 89.4% | 86.2% | 100% | 100% | 95.4% | 91.2% | 98.8% | 95.8% | 91% |  | 96% | 92.5% | inactive | 89.6% | 88.2% | Activity (Heart [25]): Active; Activity [22]: 99%; Activity (Right cardiac atrium [24]): 94% |
